Columns and labels:
[1] = mn = molality of the nth substance listed, in mol/kg; details: 101 kPa, Liquid, m2 = 0; for viscosity: Capillary tube (Ostwald / Ubbelohde) method; for speed of sound: Frequency=3 MHz, Linear variable-path acoustic interferometer
[2] = wn = mass fraction of the nth substance listed; details: 101 kPa, Liquid, w2 = 0; for viscosity: Capillary tube (Ostwald / Ubbelohde) method; for speed of sound: Frequency=3 MHz, Linear variable-path acoustic interferometer

O [water] + N[C@@H](Cc1c[nH]cn1)C(=O)O
[1]
Details | speed of sound [m/s] | viscosity [mPa·s]
293.15 K | 1483.6 | 1.002
298.15 K | – | 0.8903
303.15 K | 1508.4 | 0.7973
308.15 K | – | 0.719
313.15 K | 1526.8 | 0.6526
318.15 K | 1533 | 0.5972

Details | mass density [kg/m3]
[1], 308.15 K, Pycnometric method | 994.07

O [water] + O=C[C@H](O)[C@@H](O)[C@H](O)[C@H](O)CO
[2]
Details | speed of sound [m/s] | viscosity [mPa·s]
293.15 K | 1483.6 | 1.002
298.15 K | – | 0.8903
303.15 K | 1508.4 | 0.7973
308.15 K | – | 0.719
313.15 K | 1526.8 | 0.6526
318.15 K | 1533 | 0.5972

Details | mass density [kg/m3]
[2], 308.15 K, Pycnometric method | 994.07

Source: the NIST ThermoML archive (doi:10.1016/j.jct.2010.11.017)
